What was measured:
[1] = test system: B.S.A.-induced immune lethality in mice; assay: B.S.A.-induced immune lethality (anaphylactic shock) in actively sensitized mice; type: in vivo
Text: (§1) The different symbols NS, *, ** and *** which may be found in the different tables, mean that the result is respectively not significative, significative, very significative and highly significative.
At the same dose, ketotifen has no effect.

[2] = test system: ovalbumine-induced bronchospasm; assay: ovalbumine-induced bronchoconstriction in passively sensitized rats; type: in vivo; conditions: for Percentage of bronchoconstriction / Percentage of effect: Table IV
Text: as §1

[3] = test system: histamine induced bronchospasm; assay: histamine-induced bronchospasm in artificially ventilated anaesthetized guinea pigs; type: in vivo; conditions: for % of bronchoconstriction / % of effect: Table V, 0.1 mg/kg PO
Description: as §1
The kinetic results of the administration of compound XI and ketotifen by oral route at 0.1 mg/kg (P.O.), 1 to 27 h histamine injection (15 mg IV), are reported in table 5.

[4] = test system: PAF induced bronchospasm; assay: PAF-induced bronchospasm in artificially-ventilated anaesthetized guinea pigs; type: in vivo; conditions: for Percentage of bronchoconstriction / Percentage of effect: Table VII, PAF 60 mg/kg IV
Text: as §1

[5] = anti-allergic activity (general statements)
[6] = test system: ovalbumine-induced bronchospasm; assay: ovalbumine-induced bronchospasm in anaesthetized passively sensitized guinea-pigs; type: in vivo
Description: In the ovalbumine-induced bronchospasm in anaesthetized passively sensitized guinea-pigs, compound XI and ketotifen, administered 1 hour before the injection of ovalbumine, inhibit the bronchoconstriction (>90%) in a dose-dependant-manner respectively with following ED50 (P.O.)
For both products, the activity disappears at 24 hours.
The kinetic results, after administration by oral route of the said compounds at 0.1 mg/kg and 0.05 mg/kg (P.O.), for 1 to several hours before ovalbumine injection (1 mg/kg), are reported respectively in tables 1 and 2.
as §1

[7] = test system: histamine induced bronchospasm; assay: histamine-induced bronchospasm in artificially ventilated anaesthetized guinea pigs; type: in vivo; conditions: Cavia porcellus, po, 1 h, read-out: ED50 (P.O.)
[8] = test system: ovalbumine-induced bronchospasm; assay: ovalbumine-induced bronchospasm in actively sensitized guinea pigs; type: in vivo; conditions: Table III, 0.1 mg/kg PO
Text: as §1

[9] = test system: rat washed platelets; assay: PAF-induced aggregation of rat washed platelets in vitro; type: cell-based; conditions: Platelet, PAF 5.10^-10 M
Text: In vitro: effects on aggregation (IC50) induced by PAF (5·10^-10 M), rat washed platelets are as follow: IC50 Compound XI 2.10^-6 M. IC50 Ketotifen 10^-5 M.

[10] = Table I, 0.1 mg/kg PO, pretreatment 1 h
[11] = Table I, 0.1 mg/kg PO, pretreatment 3 h
[12] = Table I, 0.1 mg/kg PO, pretreatment 6 h
[13] = Table I, 0.1 mg/kg PO, pretreatment 9 h
[14] = Table I, 0.1 mg/kg PO, pretreatment 15 h
[15] = Table I, 0.1 mg/kg PO, pretreatment 18 h
[16] = Table I, 0.1 mg/kg PO, pretreatment 21 h
[17] = Table I, 0.1 mg/kg PO, pretreatment 24 h
[18] = Table II, 0.05 mg/kg PO, pretreatment 1 h
[19] = Table II, 0.05 mg/kg PO, pretreatment 3 h
[20] = Table II, 0.05 mg/kg PO, pretreatment 6 h
[21] = Table II, 0.05 mg/kg PO, pretreatment 9 h
[22] = Table II, 0.05 mg/kg PO, pretreatment 15 h
[23] = Table II, 0.05 mg/kg PO, pretreatment 18 h
[24] = Table II, 0.05 mg/kg PO, pretreatment 21 h

CN1CCC(=C2c3ccccc3CC(=O)c3[se]ccc32)CC1 [Compound XI, 4-(1-methyl 4-piperidyliden) 9,10-dihydro 4H-benzo [4,5] cyclohepta [1,2-b] selenophen 10-one]
protective effect (in words) ([1]; 0.275 mg/kg P.O.): shows a protective effect | Mortality at 24 hours, % of mortality ([1]; 0.275 mg/kg PO): 20% | Mortality at 24 hours, % of variation ([1]; 0.275 mg/kg PO): -67.5% | Mortality at 24 hours, number of killed ([1]; 0.275 mg/kg PO): 2/10 | Mortality at 24 hours, % of mortality ([1]; 0.550 mg/kg PO): 10% | Mortality at 24 hours, % of variation ([1]; 0.550 mg/kg PO): -83.7% | Mortality at 24 hours, number of killed ([1]; 0.550 mg/kg PO): 1/10 | Percentage of bronchoconstriction ([2]; 0.1 mg/kg PO): 18.1 ± 6.3% | Percentage of effect ([2]; 0.1 mg/kg PO): -49.4% | Percentage of bronchoconstriction ([2]; 1 mg/kg PO): 11.2 ± 2.7% | Percentage of effect ([2]; 1 mg/kg PO): -68.7% | inhibition of bronchoconstriction (in words) ([2]; passively sensitized rats): inhibits the bronchoconstriction in a dose-dependant manner | % of bronchoconstriction ([3]; 1 h): 2.0 ± 0.8% | % of effect ([3]; 1 h): -97.5 ± 1.0% | % of bronchoconstriction ([3]; 3 h): 1.0 ± 1.0% | % of effect ([3]; 3 h): -98.8 ± 1.2% | % of bronchoconstriction ([3]; 6 h): 5.4 ± 3.2% | % of effect ([3]; 6 h): -93.5 ± 3.8% | % of bronchoconstriction ([3]; 9 h): 4.9 ± 1.7% | % of effect ([3]; 9 h): -93.6 ± 2.3% | % of bronchoconstriction ([3]; 15 h): 36.6 ± 8.4% | % of effect ([3]; 15 h): -48.2 ± 11.8% | % of bronchoconstriction ([3]; 18 h): 34.9 ± 18.1% | % of effect ([3]; 18 h): 61.7 ± 19.9% | % of bronchoconstriction ([3]; 21 h): 52.9 ± 9.7% | % of effect ([3]; 21 h): 37.6 ± 11.5% | % of bronchoconstriction ([3]; 24 h): 37.9 ± 9.9% | % of effect ([3]; 24 h): -42.3 ± 15.0% | % of bronchoconstriction ([3]; 27 h): 76.8 ± 10.2% | % of effect ([3]; 27 h): +6.3 ± 14.1% | inhibition of bronchoconstriction (in words) ([3]; administered 1 hour before histamine (15 mg IV)): inhibit significantly the bronchoconstriction in a dose-dependant-manner | duration of total inhibition of the bronchospasm ([3]; during the first hours, 0.1 mg/kg P.O.): 9 h | inhibition of PAF induced bronchospasm (in words) ([4]; 1 hour before PAF, 0.1 mg/kg): significantly inhibits the bronchospasm | Percentage of bronchoconstriction ([4]; 0.1 mg/kg PO): 29.4 ± 7.9% | Percentage of effect ([4]; 0.1 mg/kg PO): -62.5% | Percentage of bronchoconstriction ([4]; 1 mg/kg PO): 23.0 ± 9.7% | Percentage of effect ([4]; 1 mg/kg PO): -70.6% | anti-allergic activity compared with compound X [5]: higher activity than compound X | histamine and ovalbumine antagonist activity ([5]; oral drug): powerful histamine and ovalbumine antagonist | time at which the activity disappears ([6]; 0.1 mg/kg and 0.05 mg/kg P.O.): 24 h | ED50 ([6]; Cavia porcellus, po, 1 h, read-out: ED50 (P.O.)): 0.0572 µmol/kg | % of bronchoconstriction [6, 10]: 6.9 ± 1.0% | % of effect [6, 10]: -91.5 ± 1.3% | % of bronchoconstriction [6, 11]: 3.9 ± 1.1% | % of effect [6, 11]: -93.7 ± 1.7% | % of bronchoconstriction [6, 12]: 15.0 ± 11.5% | % of effect [6, 12]: -75.9 ± 18.4% | % of bronchoconstriction [6, 13]: 35.7 ± 18.8% | % of effect [6, 13]: -60.1 ± 21.1% | % of bronchoconstriction [6, 14]: 38.9 ± 13.7% | % of effect [6, 14]: -50.7 ± 17.3% | % of bronchoconstriction [6, 15]: 36.8 ± 17.5% | % of effect [6, 15]: -62.0 ± 18.1% | % of bronchoconstriction [6, 16]: 73.3 ± 14.2% | % of effect [6, 16]: -24.3 ± 14.7% | % of bronchoconstriction [6, 17]: 45.4 ± 15.2% | % of effect [6, 17]: -27.1 ± 24.4% | % of bronchoconstriction [6, 18]: 13.2 ± 5.4% | % of effect [6, 18]: -85.1% | % of bronchoconstriction [6, 19]: 17.7 ± 7.0% | % of effect [6, 19]: -80.5% | % of bronchoconstriction [6, 20]: 38.3 ± 16.5% | % of effect [6, 20]: -60.4% | % of bronchoconstriction [6, 21]: 49.2 ± 16.7% | % of effect [6, 21]: -49.2% | % of bronchoconstriction [6, 22]: 61.6 ± 18.7% | % of effect [6, 22]: -6.5% | % of bronchoconstriction [6, 23]: 50.7 ± 20.4% | % of effect [6, 23]: -48.3% | % of bronchoconstriction [6, 24]: 94.6 ± 4.4% | % of effect [6, 24]: -3.5% | inhibition of bronchoconstriction ([6]; administered 1 hour before ovalbumine, P.O., dose-dependent): > 90% | ED50 [7]: 0.0169 µmol/kg | % of bronchoconstriction ([8]; pretreatment 1 h): 3.5 ± 1.1% | % of effect ([8]; pretreatment 1 h): -96.1 ± 1.3% | % of bronchoconstriction ([8]; pretreatment 3 h): 5.0 ± 1.6% | % of effect ([8]; pretreatment 3 h): -93.4 ± 2.1% | % of bronchoconstriction ([8]; pretreatment 6 h): 2.1 ± 0.6% | % of effect ([8]; pretreatment 6 h): -97.3 ± 0.8% | % of bronchoconstriction ([8]; pretreatment 9 h): 35.5 ± 15.9% | % of effect ([8]; pretreatment 9 h): -61.1 ± 22.2% | % of bronchoconstriction ([8]; pretreatment 15 h): 42.2 ± 16.6% | % of effect ([8]; pretreatment 15 h): -50.6 ± 19.5% | % of bronchoconstriction ([8]; pretreatment 18 h): 67.1 ± 19.0% | % of effect ([8]; pretreatment 18 h): +22.7 ± 34.8% | % of bronchoconstriction ([8]; pretreatment 21 h): 50.1 ± 21.6% | % of effect ([8]; pretreatment 21 h): -8.3 ± 39.5% | IC50 [9]: 2 µM

Source: patent publication US5075322A, “Selenophen derivatives, a preparation process of the same and therapeutical compositions containing them” (Societe de Conseils de Recherches et d'Applications …, priority 1989, dated 1991)
